Read-outs that look alike come from different tables or passages of the source.
How the values were obtained:
[1] = test system: LPS-induced pulmonary inflammation; test: LPS-induced pulmonary inflammation: lung histopathology lesion score; format: in vivo, C57BL/B6 mice
Procedure: Male C57BL/B6 mice weighing 10-20 g were used. Vehicle and active agents (i.e., CBD and hydroxychloroquine) alone or in combination were administered intraperitoneally (IP) at 1 hour before LPS (˜80 mg/kg) was administered intratracheally. 24 hours after LPS injection, mice were anaesthetized with pentoparbital and 0.5 mL of PBS was administered twice through a tracheal cannula after which approximately 0.6 mL of broncheoalveolar lavage fluid (BALF) was obtained. The BALF was assayed for IL-1β, TNF-α, MCP-1(MCAF) and CXCL-1 by Luminex. ANOVA followed by Dunnett's test was applied for comparison between vehicle and treatment groups. p<0.05 was considered significant.
In a separate test group of animals with pulmonary inflammation induced as detailed above, lungs were harvested at termination (five lobes per lung) and fixed in 10% neutral buffered formalin for histopathology. Samples were sectioned at 4-6 μm and stained with hematoxylin and eosin (H&E) to examine inflammatory lesions as described by Shackleford et al. (2002, Toxicologic Pathology, 30(1): 93-96). Briefly, a score of 0 corresponds to not present, and a score of 5 indicates a severe/high number of lesions. Scores were averaged across lobes for each animal and then across animals for each treatment group.

[2] = test system: collagen-induced arthritis; test: Collagen-induced arthritis; format: in vivo, Lewis rats; design: key to Clinical score Day 24, relative reduction / Pannus score, relative reduction / Total histology score, relative reduction: fractional reduction vs vehicle control, sham-baseline subtracted
Procedure: Female Lewis rats were challenged with porcine type-II collagen with Freund's adjuvant on Day 1 (0.2 mg/0.2 mL/rat) by subcutaneous injection at the base of the tail to induce arthritis. A booster injection at 0.1 mg/0.1 mL/rat) was administered on Day 7. On Day 16, rats were allocated into groups of six based on hind paw volume, with animals allocated into groups to provide a similar distribution of hind paw volumes.
Vehicle and active agents (i.e., CBD and hydroxychloroquine) alone or in combination were administered intraperitoneally (IP) once a day starting from Day 17 to Day 30, i.e., for a total of 14 consecutive days.
Disease was assessed by measuring hind paw volume with plethysmometer and using a qualitative severity score system as outlined in Table 32 on Day 1, 7, 10, 14, 16, 18, 20, 22, 24, 26, 28 and 30.
Post-termination on Day 30, blood was collected from all rats and analysed for levels of the inflammatory cytokines IL-1β, IL-6 and TNF-α by ELISA. Both hind paws were harvested, weighed and formalin-fixed for histopathology. Tissue was assessed to evaluate cartilage and bone destruction by pannus formation and mononuclear cell infiltration in synovial tissues according to the scoring matrices set out in Tables 33 and 34. A total histology score, being the sum of the pannus formation and mononuclear cell infiltration score, was also calculated.
For synergy analysis, data were baseline subtracted using sham treated […] (i.e., no collagen injection), before normalising the values relative to vehicle control. Synergy was calculated using the statistical methods described elsewhere herein.

[3] = test system: human peripheral blood mononuclear cells (PBMCs) stimulated with bacterial lipopolysaccharide (LPS); test: Cytokine release from LPS-stimulated human PBMCs (checkerboard, Luminex), Bliss synergy; format: cell-based; conditions: PBMC
Procedure: The anti-inflammatory activity the combination of CBD and hydroxychloroquine was assessed by determining cytokine release from human peripheral blood mononuclear cells (PBMCs) stimulated with bacterial lipopolysaccharide (LPS) using a Luminex based assay. A 96-well microtitre plate-based checkerboard assay with seven concentrations (including the no drug control) of CBD and hydroxychloroquine were assessed in combination was used to determine the drug-drug interaction. Briefly, frozen PMBCs from two independent donors were thawed, diluted in culture medium, seeded into 96-well microtitre plates and incubated at 37° C., 5% CO2 for 1 hour prior to the addition of test compounds. After the addition of the test compounds the cells were returned to the incubator for 1 hour, after which LPS was added to the wells. Plates were incubated at 37° C., 5% CO2 for 24 hours. After 24 hours, cell culture supernatants were removed and analysed for cytokine levels using Luminex methodology according to manufacturers' instructions. All values had the vehicle background subtracted prior to further analysis. Three plates were set up in parallel using the PBMCs from the same donor. Inhibition of cytokine release was determined relative to the no treatment control (i.e., that was stimulated with LPS) and averaged across the three replicates. A cytotoxicity assay using AlmarBlue with the identical plate set up was performed in parallel.
Drug synergy was determined using the Bliss Independence method where the predicted effect of the drug combination is calculated using the equation: […]
Synergy values for each combination of drug concentrations were calculated using the Excess Over Bliss method (the difference between the observed and predicted inhibition) described by, e.g., Liu et al. (2018, Statistics in Biopharmaceutical Research, 10: 112-122, where a value greater than 0 is indicative of synergy and the higher the value the stronger the synergy.

[4] = Solubility of formulations for in vivo analysis (visual observation); format: physicochemical
Text: Cannabidiol (CBD) and hydroxychloroquine (HCQ), were purchased by Pharmacology Discovery Services Taiwan, Ltd. The formulations are summarised in Table 3.

[5] = test system: LPS-induced pulmonary inflammation; test: LPS-induced pulmonary inflammation: BALF cytokines, synergy analysis; format: in vivo, C57BL/B6 mice; conditions: CBD 1 mg/kg, HCQ 25 mg/kg, alone or combined; observed
[6] = CBD 1 mg/kg, HCQ 2.5 mg/kg, alone or combined, observed
[7] = CBD 1 mg/kg, HCQ 2.5 mg/kg, alone or combined, serum
[8] = HCQ 25 mg/kg alone vs CBD 1 mg/kg + HCQ 2.5 mg/kg
[9] = HCQ 25 mg/kg alone vs CBD 1 mg/kg + HCQ 2.5 mg/kg, serum

CCN(CCO)CCCC(C)Nc1ccnc2cc(Cl)ccc12 (centres unmarked) [HCQ]
Relative reduction in lesion score ([1]; CBD 10 mg/kg, HCQ 25 mg/kg, alone or combined, pulmonary lesion score): 0.37 | Relative reduction in lesion score ([1]; HCQ 2.5 mg/kg): 0.21 | Clinical score Day 24, relative reduction [2, 6]: 0.18 | Pannus score, relative reduction [2, 6]: 0.07 | Paw volume Day 24, relative reduction [2, 6]: 0.04 | Total histology score, relative reduction [2, 6]: 0.15 | Relative reduction in serum cytokine levels: IL-1β [2, 7]: 0.37 | Relative reduction in serum cytokine levels: IL-6 [2, 7]: 0.51 | Clinical score Day 24, reduction in disease severity [2, 8]: 0.21 | Clinical score Day 30, reduction in disease severity [2, 8]: 0.26 | Mononuclear cell infiltration, reduction in disease severity [2, 8]: 0.24 | Pannus score, reduction in disease severity [2, 8]: 0.28 | Paw volume Day 24, reduction in disease severity [2, 8]: 0.10 | Paw volume Day 30, reduction in disease severity [2, 8]: 0.20 | Total histology score, reduction in disease severity [2, 8]: 0.26 | IL-1B, reduction [2, 9]: 0.25 | IL-6, reduction [2, 9]: 0.36 | inhibition at 0.63 µg/mL ([3]; Donor 1, HCQ 0.63 μg/mL alone, read-out: FIE (fractional inhibitory effect), IL-1α release): 3% | inhibition at 0.63 µg/mL ([3]; Donor 1, HCQ 0.63 μg/mL alone, read-out: FIE (fractional inhibitory effect), IL-1β release): 8% | inhibition at 0.63 µg/mL ([3]; Donor 1, HCQ 0.63 μg/mL alone, read-out: FIE (fractional inhibitory effect), IL-6 release): 12% | inhibition at 0.63 µg/mL ([3]; Donor 1, HCQ 0.63 μg/mL alone, read-out: FIE (fractional inhibitory effect), TNF-α release): 0% | inhibition at 1.25 µg/mL ([3]; Donor 1, HCQ 1.25 μg/mL alone, read-out: FIE (fractional inhibitory effect), IL-1α release): 1% | inhibition at 1.25 µg/mL ([3]; Donor 1, HCQ 1.25 μg/mL alone, read-out: FIE (fractional inhibitory effect), IL-1β release): 7% | inhibition at 1.25 µg/mL ([3]; Donor 1, HCQ 1.25 μg/mL alone, read-out: FIE (fractional inhibitory effect), IL-6 release): 0% | inhibition at 1.25 µg/mL ([3]; Donor 1, HCQ 1.25 μg/mL alone, read-out: FIE (fractional inhibitory effect), TNF-α release): 8% | inhibition at 2.5 µg/mL ([3]; Donor 1, HCQ 2.50 μg/mL alone, read-out: FIE (fractional inhibitory effect), IL-1α release): 12% | inhibition at 2.5 µg/mL ([3]; Donor 1, HCQ 2.50 μg/mL alone, read-out: FIE (fractional inhibitory effect), IL-1β release): 8% | inhibition at 2.5 µg/mL ([3]; Donor 1, HCQ 2.50 μg/mL alone, read-out: FIE (fractional inhibitory effect), IL-6 release): 10% | inhibition at 2.5 µg/mL ([3]; Donor 1, HCQ 2.50 μg/mL alone, read-out: FIE (fractional inhibitory effect), MIP-1α release): 0% | inhibition at 2.5 µg/mL ([3]; Donor 1, HCQ 2.50 μg/mL alone, read-out: FIE (fractional inhibitory effect), TNF-α release): 5% | inhibition at 5 µg/mL ([3]; Donor 1, HCQ 5.00 μg/mL alone, read-out: FIE (fractional inhibitory effect), IL-1α release): 24% | inhibition at 5 µg/mL ([3]; Donor 1, HCQ 5.00 μg/mL alone, read-out: FIE (fractional inhibitory effect), IL-1β release): 17% | inhibition at 5 µg/mL ([3]; Donor 1, HCQ 5.00 μg/mL alone, read-out: FIE (fractional inhibitory effect), IL-6 release): 8% | inhibition at 5 µg/mL ([3]; Donor 1, HCQ 5.00 μg/mL alone, read-out: FIE (fractional inhibitory effect), TNF-α release): 2% | inhibition at 10 µg/mL ([3]; Donor 1, HCQ 10.00 μg/mL alone, read-out: FIE (fractional inhibitory effect), IL-1α release): 50% | inhibition at 10 µg/mL ([3]; Donor 1, HCQ 10.00 μg/mL alone, read-out: FIE (fractional inhibitory effect), IL-1β release): 68% | inhibition at 10 µg/mL ([3]; Donor 1, HCQ 10.00 μg/mL alone, read-out: FIE (fractional inhibitory effect), IL-6 release): 0% | inhibition at 10 µg/mL ([3]; Donor 1, HCQ 10.00 μg/mL alone, read-out: FIE (fractional inhibitory effect), TNF-α release): 4% | inhibition at 20 µg/mL ([3]; Donor 1, HCQ 20.00 μg/mL alone, read-out: FIE (fractional inhibitory effect), IL-1α release): 54% | inhibition at 20 µg/mL ([3]; Donor 1, HCQ 20.00 μg/mL alone, read-out: FIE (fractional inhibitory effect), IL-1β release): 81% | inhibition at 20 µg/mL ([3]; Donor 1, HCQ 20.00 μg/mL alone, read-out: FIE (fractional inhibitory effect), IL-6 release): 12% | inhibition at 20 µg/mL ([3]; Donor 1, HCQ 20.00 μg/mL alone, read-out: FIE (fractional inhibitory effect), MIP-1α release): 0% | inhibition at 20 µg/mL ([3]; Donor 1, HCQ 20.00 μg/mL alone, read-out: FIE (fractional inhibitory effect), TNF-α release): 30% | inhibition at 0.63 µg/mL ([3]; Donor 2, HCQ 0.63 μg/mL alone, read-out: FIE (fractional inhibitory effect), IL-1α release): 7% | inhibition at 0.63 µg/mL ([3]; Donor 2, HCQ 0.63 μg/mL alone, read-out: FIE (fractional inhibitory effect), IL-1β release): 6% | inhibition at 1.25 µg/mL ([3]; Donor 2, HCQ 1.25 μg/mL alone, read-out: FIE (fractional inhibitory effect), IL-1α release): 11% | inhibition at 2.5 µg/mL ([3]; Donor 2, HCQ 2.50 μg/mL alone, read-out: FIE (fractional inhibitory effect), IL-1α release): 19% | inhibition at 2.5 µg/mL ([3]; Donor 2, HCQ 2.50 μg/mL alone, read-out: FIE (fractional inhibitory effect), IL-1β release): 7% | inhibition at 5 µg/mL ([3]; Donor 2, HCQ 5.00 μg/mL alone, read-out: FIE (fractional inhibitory effect), IL-1α release): 49% | inhibition at 5 µg/mL ([3]; Donor 2, HCQ 5.00 μg/mL alone, read-out: FIE (fractional inhibitory effect), TNF-α release): 2% | inhibition at 10 µg/mL ([3]; Donor 2, HCQ 10.00 μg/mL alone, read-out: FIE (fractional inhibitory effect), IL-1α release): 68% | inhibition at 10 µg/mL ([3]; Donor 2, HCQ 10.00 μg/mL alone, read-out: FIE (fractional inhibitory effect), IL-6 release): 11% | inhibition at 10 µg/mL ([3]; Donor 2, HCQ 10.00 μg/mL alone, read-out: FIE (fractional inhibitory effect), MIP-1α release): 0% | inhibition at 10 µg/mL ([3]; Donor 2, HCQ 10.00 μg/mL alone, read-out: FIE (fractional inhibitory effect), TNF-α release): 18% | inhibition at 20 µg/mL ([3]; Donor 2, HCQ 20.00 μg/mL alone, read-out: FIE (fractional inhibitory effect), IL-1α release): 63% | inhibition at 20 µg/mL ([3]; Donor 2, HCQ 20.00 μg/mL alone, read-out: FIE (fractional inhibitory effect), IL-6 release): 47% | inhibition at 20 µg/mL ([3]; Donor 2, HCQ 20.00 μg/mL alone, read-out: FIE (fractional inhibitory effect), MIP-1α release): 0% | Solubil. [4]: S | IL-6, relative inhibition of cytokine release (BALF) [5]: 0.08

Reference: patent US20230128114A1, “METHODS AND COMPOSITIONS FOR TREATING OR PREVENTING AN INFLAMMATORY CONDITION” (priority 2020, published 2023)
